Measured values as given in paper PMC1079869 (BMC Neuroscience, 2005).
Entries after “also recorded” stand apart in the source; their conditions may differ.

How the values were obtained:
[1] = tested on: NPFF2R; conditions: cited from earlier work
From the text: (§1) At the physiological level NPFF seems to have both a direct analgesic effect and a modulatory effect on the opioid system. Some of the effects may be mediated via the NPFF receptors as two such receptors, NPFF1R and NPFF2R, have been identified. […] Also the other RFamide peptides bind to the NPFF receptors with varying affinities, and therefore the exact nature of the receptor-ligand interactions between RFamides and their receptors is still unclear.

[2] = tested on: NPFF1R; conditions: cited from earlier work
From the text: as §1

[3] = tested on: neuropathic rats; conditions: periaqueductal grey; cited from earlier work
From the text: (§2) The interaction between NPFF and opioid system in pain and analgesia seems to be complex in nature and the molecular mechanisms behind the observed physiological effects are not known. […] In the rat spinal cord, the highest NPFF-like immunoreactivity is found in the superficial layers of the dorsal h ...

[4] = tested on: opioid receptor subtypes; conditions: any opioid receptor subtype; cited from earlier work
From the text: as §2

[5] = tested on: opioid withdrawal syndrome; conditions: supraspinal administration; cited from earlier work
From the text: as §2

[6] = tested on: presynaptic DOR; conditions: pontine parabrachial nucleus, via presynaptic DOR; cited from earlier work
From the text: as §2

[7] = tested on: rat pituitary cells; conditions: cited from earlier work
From the text: The dose-dependence of NPFF-agonist on the BMAX was bell-shaped. This could imply that the NPFF-analogue affects only some conformations of the receptor. […] However, the receptor involved in the prolactin release mechanism was not characterized.

[8] = tested on: pain; set-up: method as in 5 sources, ref 1 = [1]; PMID 3865193; doi:10.1073/pnas.82.22.7757; Yang H-YT Fratta W Majane EA Costa E Isolation, sequencing, synthesis, and pharmacological characterization of two brain neuropeptides that modulate the action of morphine Proc Natl Acad Sci U S A 198 ||| ref 4 = [4]; PMID 8821539; doi:10.1111/j.1476-5381.1996.tb15217.x; Gouarderes C Jhamandas K Sutak M Zajac JM Role of opioid receptors in the spinal antinociceptive effects of neuropeptide FF analogues Br J Pharmacol 1996 117 493 501 8821539 10.1111/j.1476-5381.1996.t ||| ref 44 = [44]; PMID 10499424; doi:10.1016/S0196-9781(99)00100-X; Xu M Kontinen VK Panula P Kalso E Effects of (1DMe)NPYF, a synthetic neuropeptide FF analogue, in different pain models Peptides 1999 20 1211 1217 10499424 10.1016/S0196-9781(99)00100-X ||| ref 4, 44 = [4]; PMID 8821539; doi:10.1111/j.1476-5381.1996.tb15217.x; Gouarderes C Jhamandas K Sutak M Zajac JM Role of opioid receptors in the spinal antinociceptive effects of neuropeptide FF analogues Br J Pharmacol 1996 117 493 501 8821539 10.1111/j.1476-5381.1996.t || [44]; PMID 10499424; doi:10.1016/S0196-9781(99)00100-X; Xu M Kontinen VK Panula P Kalso E Effects of (1DMe)NPYF, a synthetic neuropeptide FF analogue, in different pain models Peptides 1999 20 1211 1217 10499424 10.1016/S0196-9781(99)00100-X ||| ref 46 = [46]; PMID 12507715; doi:10.1016/S0304-3959(02)00333-0; Cahill CM Morinville A Hoffert C O'Donnell D Beaudet A Up-regulation and trafficking of delta opioid receptor in a model of chronic inflammation: implications for pain control Pain 2003 101 199 208 12; conditions: cited from earlier work; for effect on NPFF-induced analgesia / antinociception: opioid antagonist against intrathecal NPFF; for antagonism of analgesic effects of NPFF in vivo: opioid antagonists
[9] = biological target: T1, c-MYC-tagged human delta opioid receptor (Homo sapiens, UniProt P41143); assay: FACS analysis of agonist-induced DOR internalization (cell surface fluorescence)
Experimental: The CHO/MYChDOR cells were collected and suspended into the culture medium. The cells were treated with drugs in suspension as for the immunocytochemistry for the indicated times. After the incubation, the membrane trafficking was stopped by rapidly chilling the cells on ice and removing the medium. After this the cells were kept on ice. The cells were washed with PBS and stained in PBS-suspension with rabbit anti-MYC antibody (1 % normal goat serum (v/v) used to block unspecific binding), followed by the detection with a fluorescent secondary antibody. Dead cells were detected with isopropidium iodide. Cells were analyzed with FACScan flow cytometer (Becton Dickinson and Co., Mountain View, CA, USA). Data from 10000 cells were collected for each run and each sample was run in replicate or triplicate.
The internalization percent was calculated as: [drawing 1] where F(ctrl) in the fluorescence of the time-matched control cells and the F(sample) is the fluorescence measured from the drug-treated cells.
10000 cells/sample were analyzed with FACS.

[10] = biological target: T1, c-MYC-tagged human delta opioid receptor; type: cell-based
[11] = tested on: MAP-kinase p42MAPK (ERK2); assay: Phosphorylation of MAPK (ERK2) in CHO/MYChDOR cells, immunoblot; type: cell-based, Chinese hamster
Experimental: 25000 cells/well were seeded onto 24-well plates and incubated o/n. The medium was replaced with serum-free medium and the cells were incubated for one hour at 37°C. […] The reaction was stopped by removing the medium and adding modified RIPA-lysis buffer (PBS, pH 7.6; 1 % Nonidet P-40 (v/v); 0.5 % sodium deoxycholate (w/v); 0.1 % SDS (w/v), 10 mM NaF; 0.4 mM PMSF, 10 μg/ml aprotinin, 10 μg/ml leupeptin, 2 mM […]; 0.2 mM bestatin). Cells were lysed on ice for 15 min and the lysates were collected. The protein content was determined with the Bradford method.
10 μg of protein was analyzed on 10 % SDS-PAGE gel and the gel was blotted onto nitrocellulose membrane. […] After washes, the membrane was detected with the ECL-protocol. The band intensities were measured with AlphaDigiDoc1000 documentation system (Alpha Innotech, San Leandro, CA, USA). […]
Figure 6 DOR agonist induced phosphorylation of the MAP-kinase, ERK2, is increased by (1DMe)NPYF. A. Total cell lysates (10 μg protein per lane) were detected with phosphoERK2 and total ERK2 specific antibodies. […] B. The band intensities of phosphoERK2 were quantified and they are presented as relative band intensities with respect to the total ERK2. […] The statistical significance between time-points and treatments was analyzed with two-way Anova with Bonferroni's post-test, n = 5. […]

[12] = biological target: T1, c-MYC-tagged human delta opioid receptor; assay: Tb-DeltI binding on CHO/MYChDOR whole cells, effect of (1DMe)NPYF (time-resolved fluorometry)
Experimental: 6 μg of crude membrane preparations or whole cells (25 000 cell/well) that were plated one day before experiment and fixed with 4 % PFA for 10 min at room temperature, were used in the saturation binding experiments. The whole cell assays were carried out on normal cell culture plates and the assays with membrane preparations on special filter plates (Pall Life Sciences). The cells or membranes were incubated in 50 mM Tris/HCl pH 7.5; 2.5 mM MgCl2; 60 mM NaCl; 25 μM EDTA, 0.2 % BSA (w/v) for 90 min at room temperature with 0.01 – 781.25 nM Tb-DeltI in the presence or absence of 1 or 5 μM unlabeled DeltI. To study the effect of (1DMe)NPYF on the Tb-DeltI binding, 1–1000 nM (1DMe)NPYF was added together with unlabeled DeltI. After the incubation the unbound Tb-DeltI was removed by washing the plates four times with 50 mM Tris/HCl pH 7.5; 2.5 mM MgCl2. Vacuum pump system was used to wash the filter plates. Since the chelate-bound Tb-ion is nonfluorescent, it needed to be released from the complex. In order to release Tb-ion from the chelate 150 μl Delfia enhancement solution was added to the wells and the plates were incubated on a shaker for 15 min. Thereafter, 40 μl Delfia enhancer that changes the pH of the assay solution appropriate for Tb-fluorescence was added, and the plates were further incubated for 5 min on a shaker. The time-resolved fluorescence of the released Tb-ion was measured with Victor^2 Multilabel counter (Perkin Elemer Wallac, Turku, Finland).

[13] = 100 nM (1DMe)NPYF alone, 5, 10, 30 min, 37°C

T1 sequence (P41143 whole entry): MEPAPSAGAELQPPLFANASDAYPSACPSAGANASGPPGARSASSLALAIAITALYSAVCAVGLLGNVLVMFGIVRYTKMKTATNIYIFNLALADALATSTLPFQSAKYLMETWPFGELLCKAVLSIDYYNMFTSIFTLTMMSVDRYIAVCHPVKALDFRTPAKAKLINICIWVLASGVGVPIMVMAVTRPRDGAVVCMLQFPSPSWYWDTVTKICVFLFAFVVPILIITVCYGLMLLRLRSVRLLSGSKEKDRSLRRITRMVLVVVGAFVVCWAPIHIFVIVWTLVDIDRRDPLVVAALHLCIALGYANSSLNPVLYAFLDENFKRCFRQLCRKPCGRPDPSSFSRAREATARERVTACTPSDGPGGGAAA

## FLFQPQRFamide [NPFF, RFamide peptide originally isolated from bovine brain]
[1]
  binding to NPFF2R: binds to both of them
[2]
  binding to NPFF1R: binds to both of them
[3]
  attenuation of tactile allodynia: selective attenuation of tactile allodynia
[4]
  displacement of opioid receptor ligands: does not displace opioid receptor ligands from any of the opioid receptor subtypes
[5]
  opioid withdrawal syndrome: precipitates opioid withdrawal syndrome
[6]
  modulation of synaptic transmission: modulates synaptic transmission through interaction with presynaptic DOR
[7]
  effect on prolactin release, dose-response: bell-shaped dose-response curve
[8]
  effect on opiate-induced analgesia: potentiated
[8]; intrathecal
  analgesia, intrathecal: long-lasting analgesia
[8]; supraspinal administration
  effect on opioid antinociception: attenuates opioid antinociception

## Oc1ccc2c3c1O[C@H]1c4[nH]c5ccccc5c4C[C@@]4(O)[C@@H](C2)N(CC2CC2)CC[C@]314 [naltrindole]
[9]; DOR antagonist with DOR agonists ± (1DMe)NPYF
  block of receptor activation by DOR agonists and of enhanced activation by co-applied (1DMe)NPYF: could completely block
[8]
  effect on NPFF-induced analgesia / antinociception: inhibits the NPFF-induced antinociception; also recorded: reduced
  antagonism of analgesic effects of NPFF in vivo: blocked

## C=CCN1CC[C@]23c4c5ccc(O)c4O[C@H]2C(=O)CC[C@@]3(O)[C@H]1C5 [naloxone]
[8]
  effect on NPFF-induced analgesia / antinociception: reduced
  antagonism of analgesic effects of NPFF in vivo: blocked

## Y-D-AFDVVG-NH2 [DeltI, peptidic DOR agonist]
[8]; recruitment of spinal opioid receptors to plasma membrane, inflammation
  enhanced antinociceptive activity correlated with receptor recruitment: enhanced antinociceptive activity of DeltI is correlated with the recruitment of spinal opioid receptors from intracellular stores to the plasma membrane

## D-YL-(NMe)-FQPQRF-NH2 [(1DMe)NPYF]
[10]
  effect on DPDPE-induced cAMP inhibition: had hardly an effect on the cAMP accumulation
  effect on DPDPE-induced inhibition of cAMP accumulation: enhanced the DOR agonist induced inhibition of cAMP accumulation significantly at all tested DPDPE concentrations
  effect on the amount of cAMP: did not have any significant effect on the amount of cAMP
  enhancement of inhibitory effect of DOR agonists on cAMP accumulation: able to enhance the inhibitory effect of other DOR agonists, e.g. DeltI
[11]; [13]
  activation of ERK2: did not result in the activation of ERK2
[11]; 100 nM (1DMe)NPYF together with 100 nM DPDPE
  effect on ERK2 activation induced by DPDPE: significantly promoted the activation induced by DPDPE
[9]; [13]
  DOR internalization: did not induce receptor internalization at any time-point tested
[9]; 100 nM (1DMe)NPYF alone, 30 min, vs time-matched control cells
  cell surface fluorescence: somewhat higher fluorescence
[12]; 1 nM and 10 nM (1DMe)NPYF, whole cells
  effect on the BMAX for Tb-DeltI: significantly decreased the BMAX
[12]; 1–1000 nM (1DMe)NPYF, whole cells
  effect on the KD for Tb-DeltI: only modestly affected
[12]; 1–1000 nM, whole cells
  dose-dependence of effect on the BMAX: bell-shaped
[12]; higher concentrations of (1DMe)NPYF, whole cells
  effect on the BMAX for Tb-DeltI: affected the BMAX only modestly
[12]; only micromolar concentration, whole cell and membrane assays
  displacement of Tb-DeltI at micromolar concentration: could displace Tb-DeltI in whole cell and membrane binding assays to some extent
